Source: patent US11452713B2, “Chemotherapeutic methods for treating low-proliferative disseminated tumor cells” (University of Florida Research Foundation, Incorporated, priority 2016, dated 2022)
Entries after “also recorded” stand apart in the source; their conditions may differ.

Tests used:
[1] = cited from earlier work
[2] = system: TWIST1-overexpressing cells; assay: Reversal of TWIST1-dependent growth arrest by p38 inhibition; format: cell-based; conditions: FIG. 4A
Source text: TWIST1 was overexpressed so as to achieve maximal TWIST1 effect, thereby avoiding the confounding problem of added TGFβ1. TWIST1 overexpression alone generated vigorous TGFβ1-independent EMT and led to 2-3 fold lower ERK:p38 signaling ratio (i.e. high p38 activity) compared to the empty vector (FIG. 3D).
(§1) SNAIL1 represses TWIST1 during EMT initiation. TWIST1 maintains EMT by creating a low ERK:p38 signaling ratio (high p38 activity). Thus high SNAIL1 levels in primary tumors would induce EMT while high TWIST1 levels would maintain EMT in metastatic cells and possibly contribute to lpDTCs in metastatic sites (FIG. 1).

[3] = system: BM DTCs; assay: p38 inhibitor plus Taxol in PyMT-induced breast tumor mice: total BM DTCs and overall survival; format: in vivo, mouse; conditions: MMTV-PyMT mice; SB203085 72 hrs prior to until 72 hrs after each Taxol dose, 3 cycles; vs Taxol alone and untreated
Method: FIGS. 9A-9B show the p38 inhibition increase the DTCs' sensitivity to cytotoxic chemotherapy. DTCs-bearing PyMT-induced breast tumor mice were either untreated or treated with Taxol alone (10 mg/kg) or with SB203085 (10 μg/kg) followed by Taxol. Taxol was given IP every 3 weeks for 3 cycles. SB203085 was given IP BID starting 72 hours prior to Taxol and continuing until 72 hours after Taxol infusion. Ten mice were included in each reference group. FIGS. 9A and B show the overall survival (A) and total BM DTCs (B) before and after chemo were determined.
Of these TWIST1-positive BM DTCs, nearly 80% (23/29) expressed activated p38 (p-p38) and 70% (20/29) were also growth arrested as measured by a lack of BrdU incorporation (FIG. 7C-D). In contrast, of the TWIST1-negative DTCs, 94% (67/71) lacked activated p38 and 77% (55/71) were also actively proliferating. […] To confirm that these BM lpDTCs were resistant to cytotoxic agents and that p38 plays a critical role in their growth arrest, these mice were treated with either SB203085 (10 μmol/kg IP BID×7 days) or the cytotoxic drug paclitaxel (Taxol, 10 mg/kg IP once) and measured the number of all BM DTCs and the fraction of lpDTCs (ratio of TWIST1+; p-p38+; BrdU-DTCs over total BM DTCs). […] Total BM DTCs were determined prior to and 1 week after treatment ended. […]

[4] = system: BM DTCs; assay: BM DTC count and lpDTC fraction in ErbB2-induced mouse breast cancer model after single-agent treatment; format: in vivo; conditions: for BM DTC count: FIG. 8A, p<0.05; for fraction of BM lpDTCs (TWIST1+; p-p38+; BrdU- DTCs over total BM DTCs): FIG. 8B
Source text: FIGS. 8A-8B show the dormant TWIST1^+; p-p38; BrdU-DTCs resistance to cytotoxic drugs in ErbB2-induced mouse breast cancer model.
Of these TWIST1-positive BM DTCs, nearly 80% (23/29) expressed activated p38 (p-p38) and 70% (20/29) were also growth arrested as measured by a lack of BrdU incorporation (FIG. 7C-D). In contrast, of the TWIST1-negative DTCs, 94% (67/71) lacked activated p38 and 77% (55/71) were also actively proliferating. Therefore TWIST1-positive; p-p38-positive; BrDU-negative cells represent the fraction of true lpDTCs in these models. To confirm that these BM lpDTCs were resistant to cytotoxic agents and that p38 plays a critical role in their growth arrest, these mice were treated with either SB203085 (10 μmol/kg IP BID×7 days) or the cytotoxic drug paclitaxel (Taxol, 10 mg/kg IP once) and measured the number of all BM DTCs and the fraction of lpDTCs (ratio of TWIST1+; p-p38+; BrdU-DTCs over total BM DTCs). […] ErbB2- or PyMT-induced breast tumor mice were untreated or treated with either Taxol alone or a combination of SB203085 plus Taxol with SB203085 starting 72 hrs prior to and ending 72 hrs after each dose of Taxol (FIG. 9). Three 21-day cycles of chemotherapy were given. Total BM DTCs were determined prior to and 1 week after treatment ended.

[5] = system: TWIST1-positive cells; assay: Sensitivity of TWIST1-positive cells to Taxol with or without SB203580 pretreatment; format: cell-based
Source text: as §1

Compound | tolerability ([1]; 4 dose levels 0.5, 3, 6 and 10 mg PO qday) | most common side effect: skin rash ([1]; phase 2 trial in emphysema) [%] | severe adverse events ([1]; phase 2 trial in emphysema) | TWIST1-dependent growth arrest [2] | overall survival [3] | total BM DTCs [3] | increase of number of total BM DTCs compared to non-treated animals ([4]; 10 μmol/kg IP BID x 7 days) [fold] | BM DTC count [4] | fraction of BM lpDTCs (TWIST1+; p-p38+; BrdU- DTCs over total BM DTCs) ([4]; listed as SB203085) | IC50 ([5]; non-pretreated, FIG. 4B) [nM] | IC50 ([5]; pretreatment with SB203580, FIG. 4B) [nM] | decrease of total DTC number ([4]; 10 mg/kg IP once) [fold] | fraction of BM lpDTCs (TWIST1+; p-p38+; BrdU- DTCs over total BM DTCs) [4]
CNC(=O)c1ccc(C)c(-n2c(C)cc(OCc3ccc(F)cc3F)c(Br)c2=O)c1 [PH797804, 3-(4-(2,4-difluorobenzyloxy)-3-bromo-6-methyl-2-oxopyridin-1(2H)-yl)-N,4-dimethylbenzamide] | well tolerated | ~1 | No significant severe adverse events | – | – | – | – | – | – | – | – | – | –
C[S+]([O-])c1ccc(-c2nc(-c3ccc(F)cc3)c(-c3ccncc3)[nH]2)cc1 (centres unmarked) [SB203580, 4-(4-Fluorophenyl)-2-(4-methylsulfinylphenyl)-5-(4-pyridyl)-1H-imidazole] | – | – | – | reversed TWIST1-dependent growth arrest in a dose dependent manner | increased overall survival | significantly reduced total BM DTCs | > 4 | increases | decreased | – | – | – | –
CC(=O)O[C@H]1C(=O)[C@@]2(C)[C@H]([C@H](OC(=O)c3ccccc3)[C@]3(O)C[C@H](OC(=O)[C@H](O)[C@@H](NC(=O)c4ccccc4)c4ccccc4)C(C)=C1C3(C)C)[C@]1(OC(C)=O)CO[C@@H]1C[C@@H]2O [Taxol, paclitaxel] | – | – | – | – | – | – | – | decreases | – | > 40 | 6.1 | ~2.5 | enriches; also recorded: significantly increased
